Earlier results as cited in patent US6562842B2, “Protease inhibitors” (SmithKline Beecham Corporation, priority 1995, dated 2003).

Tests used:
bone resorption [1] = conditions: measured by acute changes in serum calcium; rats on calcium deficient diets
bone resorption [2] = conditions: mouse bone organ culture system
bone resorption [3] = conditions: mouse calvariae

Compound | prevention of bone resorption in vivo (bone resorption [1]) | prevention of bone resorption (bone resorption [2]) | inhibition of PFH stimulated bone resorption (bone resorption [3])
CC(C)C[C@H](NC(=O)[C@H]1O[C@@H]1C(=O)O)C(=O)NCCCCN=C(N)N [Example E-64, E-64] | effective at preventing bone resorption in vivo | – | –
C[C@H](NC(=O)[C@H](Cc1ccccc1)NC(=O)OCc1ccccc1)C(=O)C=[N+]=[N-] [Z-Phe-Ala-CHN2] | – | prevent bone resorption | –
CC(=O)N[C@@H](CC(C)C)C(=O)N[C@@H](CC(C)C)C(=O)N[C@H](C=O)CCCNC(=N)N [leupeptin] | effective at preventing bone resorption in vivo | prevent bone resorption | –
cystatin | – | – | inhibits PFH stimulated bone resorption
